Measured values from the supplement of paper PMC9013687.
± gives the standard deviation of the averaged measurements.

Columns and labels:
Danio rerio embryo [1] = conditions: exposure time: 4 dpf
Procedure: (§1)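 Zebrafish embryos (UFZ-OBI strain) were exposed from 2 hpf for 48 h (2 dpf) or 96 h (4 dpf) at 28 °C; spontaneous tail coiling was scored at 25 hpf. Morphological features from automated image analysis (FishInspector), heart rate and locomotor response were fitted with drc models. Quantal endpoints were dichotomised at 2.5 SD from controls and fitted with a log-logistic model; heart rate, pigmentation and STC were normalised to the replicate control mean. Betamethasone was tested as betamethasone dipropionate, diflorasone as diflorasone diacetate.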

Danio rerio embryo [2] = test: EC50 Eye-jaw distance_Decrease; conditions: exposure time: 4 dpf
Procedure: as §1

Danio rerio embryo [3] = test: EC10 Eye-jaw distance_Decrease; higher = less potent; conditions: exposure time: 4 dpf
Procedure: as §1

Danio rerio embryo [4] = tested on: Danio rerio embryo
Procedure: as §1

Danio rerio embryo [5] = test: EC20 Body length_Decrease; higher = less potent; conditions: exposure time: 2 dpf
Procedure: as §1

Danio rerio embryo [6] = test: EC20 Pericard size_Increase; higher = less potent; conditions: exposure time: 4 dpf
Procedure: as §1

Danio rerio embryo [7] = test: EC10 Lack of SB; higher = less potent; conditions: exposure time: 4 dpf
Procedure: as §1

Danio rerio embryo [8] = test: EC10 Body length_Decrease; higher = less potent; conditions: exposure time: 2 dpf
Procedure: as §1

Danio rerio embryo [9] = test: EC10 Heart rate; higher = less potent
Procedure: as §1

Danio rerio embryo [10] = test: EC20 Pigmentation increase; higher = less potent; conditions: exposure time: 4 dpf
Procedure: as §1

Danio rerio embryo [11] = test: EC50 Yolk sac size_Increase; conditions: exposure time: 4 dpf
Procedure: as §1

Danio rerio embryo [12] = test: EC20 Any effect; higher = less potent
Procedure: as §1

Danio rerio embryo [13] = test: EC20 LMR dark; higher = less potent; conditions: exposure time: 4 dpf
Procedure: as §1

Danio rerio embryo [14] = test: EC50 Bladder size_Decrease; conditions: exposure time: 4 dpf
Procedure: as §1

Danio rerio embryo [15] = test: EC20 Heart rate; higher = less potent
Procedure: as §1

Danio rerio embryo [16] = test: EC10 Any effect; higher = less potent
Procedure: as §1

Danio rerio embryo [17] = test: EC20 Yolk sac size_Increase; higher = less potent; conditions: exposure time: 4 dpf
Procedure: as §1

Danio rerio embryo [18] = test: EC10 Pericard size_Increase; higher = less potent; conditions: exposure time: 4 dpf
Procedure: as §1

Danio rerio embryo [19] = test: EC50 Body length_Decrease; conditions: exposure time: 2 dpf
Procedure: as §1

Danio rerio embryo [20] = test: EC10 Yolk sac size_Increase; higher = less potent; conditions: exposure time: 4 dpf
Procedure: as §1

Danio rerio embryo [21] = test: EC20 STC decrease; higher = less potent; conditions: exposure time: 25 h
Procedure: as §1

Danio rerio embryo [22] = test: EC50 Pericard size_Increase; conditions: exposure time: 4 dpf
Procedure: as §1

Danio rerio embryo [23] = test: spontaneous tail coiling frequency (coils/min/embryo); higher = more spontaneous movement; conditions: 25 hpf
Procedure: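 Spontaneous tail coilings of zebrafish embryos exposed from 2 hpf were recorded at 24-25 hpf in 1-min videos and detected by a KNIME workflow from grey-value variance. Betamethasone was tested as the dipropionate, diflorasone as the diacetate.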

Danio rerio embryo [24] = test: EC10 LMR dark; higher = less potent; conditions: exposure time: 4 dpf
Procedure: as §1

Danio rerio embryo [25] = test: EC10 Pigmentation increase; higher = less potent; conditions: exposure time: 4 dpf
Procedure: as §1

Danio rerio embryo [26] = test: EC20 Eye-jaw distance_Decrease; higher = less potent; conditions: exposure time: 4 dpf
Procedure: as §1

Danio rerio embryo [27] = test: EC10 STC decrease; higher = less potent; conditions: exposure time: 25 h
Procedure: as §1

Danio rerio embryo [28] = test: EC20 Bladder size_Decrease; higher = less potent; conditions: exposure time: 4 dpf
Procedure: as §1

Danio rerio embryo [29] = test: EC10 Bladder size_Decrease; higher = less potent; conditions: exposure time: 4 dpf
Procedure: as §1

Danio rerio embryo [30] = conditions: exposure time: 4 dpf; remark: listed apart in the source
Procedure: as §1

Danio rerio embryo [31] = test: EC20 Lack of SB; higher = less potent; conditions: exposure time: 4 dpf
Procedure: as §1

Compound: CNCCC=C1c2ccccc2CCc2ccccc21 [Nortriptyline]
- EC50 LMR dark (Danio rerio embryo [1]): 10.3 µM
- EC50 Eye-jaw distance Decrease (Danio rerio embryo [2]): 21.5 µM
- EC10 Eye-jaw distance Decrease (Danio rerio embryo [3]): 16.6 µM
- EC50 Any effect (Danio rerio embryo [4]; exposure time: 2 dpf): 50.5 µM
- EC50 Any effect (Danio rerio embryo [4]; exposure time: 4 dpf): 22.1 µM
- EC50 STC decrease (Danio rerio embryo [4]; exposure time: 25 h): 39 µM
- EC20 Body length Decrease (Danio rerio embryo [5]): 36.3 µM
- EC20 Pericard size Increase (Danio rerio embryo [6]): 17.8 µM
- EC10 Lack of SB (Danio rerio embryo [7]): 4.59 µM
- EC10 Body length Decrease (Danio rerio embryo [8]): 34 µM
- EC10 Heart rate (Danio rerio embryo [9]; exposure time: 2 dpf): 39.8 µM
- EC10 Heart rate (Danio rerio embryo [9]; exposure time: 4 dpf): 9.66 µM
- EC20 Pigmentation increase (Danio rerio embryo [10]): 1.83 µM
- EC50 Yolk sac size Increase (Danio rerio embryo [11]): 29.2 µM
- EC20 Any effect (Danio rerio embryo [12]; exposure time: 2 dpf): 36.4 µM
- EC20 Any effect (Danio rerio embryo [12]; exposure time: 4 dpf): 19.1 µM
- EC20 LMR dark (Danio rerio embryo [13]): 1.96 µM
- EC50 Bladder size Decrease (Danio rerio embryo [14]): 5.07 µM
- EC20 Heart rate (Danio rerio embryo [15]; exposure time: 2 dpf): 79.7 µM
- EC20 Heart rate (Danio rerio embryo [15]; exposure time: 4 dpf): 19.3 µM
- EC10 Any effect (Danio rerio embryo [16]; exposure time: 2 dpf): 30 µM
- EC10 Any effect (Danio rerio embryo [16]; exposure time: 4 dpf): 17.5 µM
- EC20 Yolk sac size Increase (Danio rerio embryo [17]): 18.7 µM
- EC10 Pericard size Increase (Danio rerio embryo [18]): 16.5 µM
- EC50 Body length Decrease (Danio rerio embryo [19]): 40.6 µM
- EC10 Yolk sac size Increase (Danio rerio embryo [20]): 14.5 µM
- EC20 STC decrease (Danio rerio embryo [21]): 8.4 µM
- EC50 Pericard size Increase (Danio rerio embryo [22]): 20.4 µM
- spontaneous tail coiling frequency (Danio rerio embryo [23]; 0.3 µM): 2.44
- spontaneous tail coiling frequency (Danio rerio embryo [23]; 3.3 µM): 2.01
- spontaneous tail coiling frequency (Danio rerio embryo [23]; 13.2 µM): 2.12 ± 0.15
- spontaneous tail coiling frequency (Danio rerio embryo [23]; 16.9 µM): 1.32
- spontaneous tail coiling frequency (Danio rerio embryo [23]; 19.8 µM): 2.06
- spontaneous tail coiling frequency (Danio rerio embryo [23]; 29.6 µM): 1.39 ± 0.13
- spontaneous tail coiling frequency (Danio rerio embryo [23]; 33.9 µM): 1.27
- spontaneous tail coiling frequency (Danio rerio embryo [23]; 44.5 µM): 1.1
- spontaneous tail coiling frequency (Danio rerio embryo [23]; 66.7 µM): 1.79 ± 0.47
- spontaneous tail coiling frequency (Danio rerio embryo [23]; 67.8 µM): 1.17
- spontaneous tail coiling frequency (Danio rerio embryo [23]; 100 µM): 0.43
- spontaneous tail coiling frequency (Danio rerio embryo [23]; 100.1 µM): 1.13
- spontaneous tail coiling frequency (Danio rerio embryo [23]; 133.4 µM): 0.28
- spontaneous tail coiling frequency (Danio rerio embryo [23]; 135.6 µM): 0
- EC10 LMR dark (Danio rerio embryo [24]): 0.745 µM
- EC10 Pigmentation increase (Danio rerio embryo [25]): 0.889 µM
- EC20 Eye-jaw distance Decrease (Danio rerio embryo [26]): 18.3 µM
- EC10 STC decrease (Danio rerio embryo [27]): 3.44 µM
- EC20 Bladder size Decrease (Danio rerio embryo [28]): 4.76 µM
- EC10 Bladder size Decrease (Danio rerio embryo [29]): 4.59 µM
- EC50 Lack of SB (Danio rerio embryo [30]): 5.07 µM
- EC20 Lack of SB (Danio rerio embryo [31]): 4.76 µM
